Several values for one entry are separate records, joined by “and”; a condition that tells them apart may be missing. Identical values can stand only once.
Assays:
HeLa = conditions: bulk resorufin, single well, 28.5 h, 10 µM, Bulk resorufin fluorescence
in vitro = conditions: human, hela cells, % viability

| Compound | % viability (HeLa) | viability at 28.5 h, 10 µM (in vitro) [%] |
| --- | --- | --- |
| Cc1c(NC(=O)OC(C)C)sc(=S)n1C [CBK028089] | 83.7% | 88.9 |
| CC(C)(C)NC(=O)CN1C(=O)[C@H]2CCCN2C(=O)c2ccccc21 [CBK282428] | 107% | 89.5 |
| CN1CCN(S(=O)(=O)c2ccc(C(=O)O)cc2)CC1 [CBK062446] | 109% and 101% | 90.4 |
| CC[C@H](Cn1ncc2ccccc2c1=O)NC(=O)C1CCCC1 [CBK284302] | 102% | 94.2 |
| Cc1csc(NC(=O)c2ccc(S(=O)(=O)N3CCCCC3)cc2)n1 [CBK069735] | 103% | 102 |
| COc1cccc(NC(=O)c2sc3ncn(C)c(=O)c3c2C)c1 [CBK071807] | 82.5% | 99.2 |
| O=C(O)c1cc(S(=O)(=O)NCc2ccco2)c(Cl)cc1N1CCCCC1 [CBK263409] | 92.5% | 108 |
| CCOC(=O)N1CCC(NS(=O)(=O)c2ccc(Oc3ccccc3)cc2)CC1 [CBK045469] | 97.7% | 98.4 |
| CC(C)c1ccc(CN2CCC(Cc3ccccc3)CC2)cc1 [CBK126378] | 109% | 99.1 |
| CC[C@@H](Cn1nc(-c2cccs2)ccc1=O)NC(=O)c1ccco1 [CBK282308] | 87.3% | 94.7 |
| Cc1c(S(=O)(=O)NCCN2CCNC2=O)cnn1-c1ccccc1 [CBK062603] | 99.3% | 117 |
| COc1ccc(C2N(CC(N)=O)CCOC23CCN(C(=O)c2ccc4ccccc4c2)CC3)cc1 (centres unmarked) [CBK115613] | 101% | 96.9 |
| O=C(O)Cc1cc(C(=O)/C=C/c2c(Cl)cccc2Cl)ccc1O [CBK013106] | 100% | 99 |
| CC(=O)NC(NS(=O)(=O)c1ccccc1)(C(F)(F)F)C(F)(F)F [CBK025820] | 92.5% | 98.4 |
| Cn1c(=O)c2c(-c3ccccc3)n(-c3ccc(C(=O)O)cc3)cc2n(C)c1=O [CBK265040] | 98.4% | 84 |
| CC(CCN1CC2C[C@@H](O)CN2C[C@H]1C)c1ccccc1 (some centres unmarked) [CBK283010] | 89.2% | 82.4 |
| CN1CCc2[nH]c(=S)c(C#N)c(-c3ccccc3)c2C1 [CBK288354] | 87.1% | 96.5 |
| COCCn1c(S)nc(=O)c2cc(C)cnc21 [CBK288520] | 92.2% | 88 |
| CCOC(=O)c1c(NS(=O)(=O)c2ccc(NC(C)=O)cc2)sc2c1CCCC2 [CBK004658] | 99.8% | 90.3 |
| O=C(CNS(=O)(=O)c1ccc(Br)cc1)N1CCOCC1 [CBK034469] | 87% | 96 |
| O=C1CSC(c2ccc(Br)cc2)N1O (centres unmarked) [CBK288521] | 97.7% | 89 |

| Compound | % viability (HeLa) | viability at 28.5 h, 10 µM (in vitro) [%] |
| --- | --- | --- |
| O=C(Nc1cncc(OC2CCNCC2)n1)C1CCC1 [CBK026728T] | 94% | 81.9 |
| Nc1c(-c2cccc3cccnc23)cnc2ncccc12 [CBK083682] | 88.7% | 108 |
| COc1ccc(/C=C/C(=O)O)cc1S(=O)(=O)N1CCOCC1 [CBK261247] | 84.7% | 101 |
| C[C@@H]1CN2CCCC2CN1Cc1ccc(F)c(F)c1 (some centres unmarked) [CBK285445] | 105% | 99.5 |
| Cc1cc(CN2CC3CCCN3C[C@H]2C)oc1C (some centres unmarked) [CBK285449] | 103% | 96.9 |
| CC(C)(C)c1cc(C(=O)NCCN2CCCC2)n(Cc2ccc(Cl)cc2Cl)n1 [CBK107290] | 110% | 115 |
| O=C(CSC1=NCCS1)Nc1ccnc2ccccc12 [CBK112077] | 98.9% | 101 |
| COc1ccc(-n2ccc(=O)c(Cc3c(Cl)cccc3Cl)c2C)cc1 [CBK019186] | 106% | 89.2 |
| CC1(C)CC(NC(=O)/C=C/C(=O)O)CC(C)(C)N1 [CBK262018] | 90.9% | 88.4 |
| Cc1ccc(-c2csc3c(=O)[nH]c(N4CCC5(CC4)OCCO5)nc23)cc1 [CBK288034] | 92.2% | 83.9 |
| Oc1ccc(-c2cncc(-c3ccc(CN4CCOCC4)cc3)n2)cc1 [CBK123787] | 108% | 104 |
| O=C(Cn1c([C@@H]2CCCO2)cc2cccnc21)N1CCCCCC1 [CBK282285] | 101% | 88 |
| O=C(c1cccnc1)N1C2CCC(C2)[C@H]1COc1ccc(F)cc1 (some centres unmarked) [CBK285268] | 87.8% | 90.2 |
| O=C(C1CC1)N1CCC[C@H](Cn2nc(-c3cccs3)ccc2=O)C1 [CBK284314] | 91.8% | 74.7 |
| CCN(CC)c1ccc(NC(=O)N2CCN(Cc3ccccc3)CC2)cc1 [CBK155645] | 90.4% | 99.7 |
| O=C(NC1CC1)[C@H]1C=CCN1S(=O)(=O)c1cccc(F)c1 [CBK285485] | 98.9% | 111 |
| COc1ccc(C(=O)Nc2ccc(OCC(=O)O)cc2)cc1 [CBK260894] | 85.6% | 91.4 |
| CC1CCCN(Cc2c([C@H]3CCCO3)[nH]c3ncccc23)C1 (some centres unmarked) [CBK282287] | 106% | 110 |
| COc1nccnc1OC1CCNCC1 [CBK073919T] | 86.5% and 97.3% | 100 |
| S=c1[nH]nc(-c2sc3ccccc3c2Cl)[nH]1 [CBK013698] | 90.2% | 96.3 |
| C[C@@H]1CN2CCCC2CN1Cc1cc(F)ccc1F (some centres unmarked) [CBK285444] | 94.9% | 104 |

| Compound | % viability (HeLa) | viability at 28.5 h, 10 µM (in vitro) [%] |
| --- | --- | --- |
| O=C(CC1SC(Nc2ccc(O)cc2)=NC1=O)c1ccccc1 (centres unmarked) [CBK267009] | 89% | 98.5 |
| O=C(NCCc1ccccc1)[C@@H]1C=CCN1C(=O)c1ccco1 [CBK284316] | 90% | 93 |
| COc1cc(F)ccc1-c1nc(NS(C)(=O)=O)cc2ccccc12 [CBK085751] | 105% | 97.2 |
| CC(C)[C@H](Cn1nc(C2CC2)ccc1=O)NC(=O)C1CCC1 [CBK282367] | 91.4% | 85.1 |
| CC(C)(C)OC(=O)N1CCC[C@H]([C@H](O)c2ccc(F)cc2)C1 [CBK284298] | 80.1% | 92.3 |
| O=C(NCCc1ccccc1)[C@@H]1C=CCN1C(=O)C1CC1 [CBK284315] | 81.8% | 93.6 |
| FC(F)(F)c1ccnc(OCCCc2ccncc2)c1 [CBK115786] | 101% | 109 |
| O=[N+]([O-])c1c(-c2cn[nH]c2)n[nH]c1-c1cn[nH]c1 [CBK008388] | 93.4% | 86.2 |
| O=C(Cn1c([C@H]2CCCO2)cc2cccnc21)NC1CCCC1 [CBK285219] | 85.4% | 88.8 |
| CCC(C)NC(=O)Cn1c([C@H]2CCCO2)cc2cccnc21 (some centres unmarked) [CBK282874] | 100% | 88.1 |
| CC(C)c1n[nH]c2c1/C(=N\N)c1ccccc1-2 [CBK017384] | 73.8% | 85.4 |
| O=C(O)C1(c2ccccc2)CCN(S(=O)(=O)c2ccc(F)cc2)CC1 [CBK267571] | 87.8% | 92.9 |
| O=C(Nc1ccccc1OC1CCNCC1)C1CCCO1 (centres unmarked) [CBK045905T] | 110% | 91.1 |
| C[C@H]1CN2C[C@H](O)CC2CN1Cc1cc(Br)cs1 (some centres unmarked) [CBK285044] | 94% | 103 |
| O=C(O)c1c(NS(=O)(=O)c2ccc(Oc3ccccc3)cc2)sc2c1CCCC2 [CBK024820] | 106% | 101 |
| CS(=O)(=O)Nc1ccc2[nH]c(=O)c(C(=O)NCc3ccc(Cl)cc3)cc2c1 [CBK017560] | 102% | 97.9 |
| Cc1cc2ncn(C3CC(=O)N(c4ccc(C(=O)O)cc4)C3=O)c2cc1C (centres unmarked) [CBK286586] | 92.4% | 89.4 |
| CCOc1ccc(CCN2C(=O)CN=C2S)cc1OCC [CBK288528] | 98.3% | 103 |
| C[C@@H](Cn1nnc2ccccc21)NC(=O)c1ccco1 [CBK284319] | 86.3% | 75.9 |
